Source: the supplement of paper PMC8967900

What was measured:
Test in all cases: selective drug sensitivity score (sDSS, relative to normal bone marrow) (sDSS (score)); higher = more potent and effective on the cell line relative to normal bone marrow cells
Details in all cases: 72 h
DND-41 = tested on: DND-41
TMD5 = tested on: TMD5
KASUMI-9 = tested on: KASUMI-9
KOPN-8 = tested on: KOPN-8
COG-LL-402h = tested on: COG-LL-402h
MOLT-14 = tested on: MOLT-14
RPMI-8402 = tested on: RPMI-8402
COG-LL-317 = tested on: COG-LL-317
KASUMI-10 = tested on: KASUMI-10
REH = tested on: REH
P12-ICHIKAWA = tested on: P12-ICHIKAWA
CCRF-HSB2 = tested on: CCRF-HSB2
SUP-B15 = tested on: SUP-B15
MOLT-4 = tested on: MOLT-4
KARPAS-45 = tested on: KARPAS-45
HAL-01 = tested on: HAL-01
HPB-ALL = tested on: HPB-ALL
TANOUE = tested on: TANOUE
KASUMI-2 = tested on: KASUMI-2
RCH-ACV = tested on: RCH-ACV
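Also: ALL cell lines in 384-well plates, five doses spanning 10,000-fold, each plate scaled between vehicle and 100 µmol/L benzalkonium chloride controls, sDSS an adapted area-under-curve metric.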

| Compound | selective drug sensitivity score (DND-41) | selective drug sensitivity score (TMD5) | selective drug sensitivity score (KASUMI-9) | selective drug sensitivity score (KOPN-8) | selective drug sensitivity score (COG-LL-402h) | selective drug sensitivity score (MOLT-14) | selective drug sensitivity score (RPMI-8402) | selective drug sensitivity score (COG-LL-317) | selective drug sensitivity score (KASUMI-10) | selective drug sensitivity score (REH) | selective drug sensitivity score (P12-ICHIKAWA) | selective drug sensitivity score (CCRF-HSB2) | selective drug sensitivity score (SUP-B15) | selective drug sensitivity score (MOLT-4) | selective drug sensitivity score (KARPAS-45) | selective drug sensitivity score (HAL-01) | selective drug sensitivity score (HPB-ALL) | selective drug sensitivity score (TANOUE) | selective drug sensitivity score (KASUMI-2) | selective drug sensitivity score (RCH-ACV) |
| --- | --- | --- | --- | --- | --- | --- | --- | --- | --- | --- | --- | --- | --- | --- | --- | --- | --- | --- | --- | --- |
| CCn1c(C(=O)N(C2CC2)C2CC2)cc2c3c(ncn3C)c(Nc3cc(C)n(C)n3)nc21 (top concentration 10000 nM) | -3.86 | -4.36 | 0.04 | -4.36 | -4.36 | -4.36 | -4.16 | -4.36 | -0.66 | -4.36 | -4.36 | 5.14 | -4.36 | -3.36 | -3.06 | 1.04 | -3.16 | -4.36 | -4.36 | -3.06 |
| C=C1C[C@@H]2[C@H](CC[C@]3(C)C(=O)CC[C@@H]23)[C@@]2(C)C=CC(=O)C=C12 [Exemestane] (top concentration 10000 nM) | -1.9 | -0.1 | -0.8 | 5.8 | 2.2 | 1 | -1.9 | 0 | -1.9 | -1.9 | -1.9 | -1 | 1.1 | -1.9 | -1.2 | 3.8 | 5.5 | -0.7 | 2.3 | 0.4 |
| Cc1nc(-c2cn3c(n2)-c2ccc(-c4cnn(C(C)(C)C(N)=O)c4)cc2OCC3)n(C(C)C)n1 [Taselisib] (top concentration 1000 nM) | -4.3 | -4.3 | 6.3 | -0.9 | 10.9 | -4.3 | 1.5 | 0.8 | 1.7 | 5.7 | -0.3 | 2.3 | -1.4 | 3 | 2 | 11.1 | -0.4 | -4.3 | 4 | 22.1 |
| Cc1ncc(-c2ccnc(Nc3ccc(S(C)(=O)=O)cc3)n2)n1C(C)C [AZD-5438] (top concentration 10000 nM) | -2.06 | -5.96 | -0.26 | 5.24 | -0.46 | 3.64 | -0.76 | -0.56 | 6.04 | 1.54 | -0.36 | 1.34 | 9.74 | -5.46 | 2.64 | -5.96 | -5.06 | -9.96 | -0.86 | 2.44 |
| Cc1cn(-c2cc(NC(=O)c3ccc(C)c(Nc4nccc(-c5cnccn5)n4)c3)cc(C(F)(F)F)c2)cn1 [Radotinib] (top concentration 10000 nM) | 13.8 | 22 | 9.2 | 10.3 | 0 | 0.6 | 3.3 | 0 | 0 | 0 | 0.7 | 8.2 | 36.2 | 1.2 | 0 | 0 | 6.4 | 1.3 | 0 | 9.4 |
| CC(C)c1c(C(=O)Nc2ccccc2)c(-c2ccccc2)c(-c2ccc(F)cc2)n1CC[C@@H](O)C[C@@H](O)CC(=O)O [Atorvastatin] (top concentration 10000 nM) | 1.9 | -1.6 | -3.7 | 6.6 | -1.8 | -0.9 | 2.9 | 8 | -1.8 | 1 | 0.7 | -2.1 | 0.8 | -2.1 | 3.5 | -1.9 | -1.5 | -3.7 | -3.7 | -1 |
| COC[C@H](NC(=O)c1cnc(C)s1)C(=O)N[C@@H](COC)C(=O)N[C@@H](Cc1ccccc1)C(=O)[C@@]1(C)CO1 [Oprozomib] (top concentration 2500 nM) | 11.1 | -1.6 | 3.2 | 3 | 2.2 | 2.8 | 2.8 | 7.9 | 3.7 | -0.4 | 2.1 | 14.2 | 14 | 12.6 | 4.6 | -0.8 | -0.5 | -8.7 | -1.1 | -1.1 |
| Nc1cccc2c1CN(C1CCC(=O)NC1=O)C2=O (stereo not given) [Lenalidomide] (top concentration 100000 nM) | 2.12 | 5.02 | 7.42 | 1.02 | -2.28 | 0.12 | -2.08 | 2.92 | 3.22 | -2.28 | -2.28 | 0.22 | -2.28 | -2.28 | -2.28 | 4.22 | -2.28 | -2.28 | -2.28 | 4.42 |
| CC(C)(C)c1cnc(CSc2cnc(NC(=O)C3CCNCC3)s2)o1 [SNS-032] (top concentration 10000 nM) | -2.44 | -4.54 | -0.54 | -2.54 | 3.06 | -4.74 | -4.74 | 1.66 | -2.64 | -5.44 | -5.04 | -2.24 | -3.14 | -4.84 | -2.24 | -8.04 | -4.74 | -14 | -5.44 | 1.26 |
| Cc1noc2c1-c1ccccc1C(c1ccc(Cl)cc1)=N[C@H]2CC(N)=O [CPI-0610] (top concentration 10000 nM) | 1.6 | 0 | 8.4 | 11.1 | 4.9 | 0.3 | 4.4 | 3.3 | 4.6 | -1.2 | 4.4 | 0.8 | 5.7 | -2.6 | 6.7 | -2.2 | 1 | -5.8 | -5.8 | 10.9 |
| N#Cc1ccc(COC[C@H]2O[C@@H](n3c(NCc4ccc(Cl)c(Cl)c4)nc4c(N)ncnc43)[C@H](O)[C@@H]2O)cc1 (top concentration 10000 nM) | 8.82 | -1.38 | -0.58 | 2.02 | 2.02 | 9.22 | 7.92 | 6.22 | -0.68 | 9.12 | 7.22 | 9.92 | 5.72 | 5.32 | 7.82 | 0.42 | 4.32 | 1.42 | -0.08 | 8.62 |
| NCC(=O)Nc1ccc(-n2nc(C(F)(F)F)cc2-c2ccc3c(ccc4ccccc43)c2)cc1 (top concentration 25000 nM) | 7.5 | -0.2 | 8.1 | 7.4 | -0.2 | 11.2 | 13 | 11.3 | 0 | 12.5 | 16.7 | 16.4 | 7.5 | 14.7 | 6.9 | 5.5 | 7.6 | 4.7 | 0.1 | 17.3 |
| Cc1ccc(C(=O)Nc2cccc(C(F)(F)F)c2)cc1Nc1nc(-c2cccnc2)nc2c1cnn2C [NVP-BHG712] (top concentration 10000 nM) | 5.38 | 7.28 | 5.18 | 7.78 | -2.32 | 2.28 | 5.08 | 1.48 | 3.38 | 6.18 | 3.08 | 10.3 | 7.98 | 3.08 | 3.48 | 2.98 | 0.18 | -2.32 | 2.38 | 7.78 |
| COc1cccc(OCCCN)c1-c1cc(Nc2cnc(C#N)cn2)n[nH]1 [Prexasertib] (top concentration 10000 nM) | 19.6 | 8.94 | 20.4 | 20.4 | 14.8 | 18.4 | 19.2 | 20.2 | 16.1 | 17 | 19 | 18.6 | 20.9 | 20.4 | 17.5 | 19 | 14.6 | -0.86 | 16.2 | 20.9 |
| CC(C)c1cc(C(=O)N2Cc3ccc(CN4CCN(C)CC4)cc3C2)c(O)cc1O [Onalespib] (top concentration 2500 nM) | 4.62 | -3.28 | -2.18 | 6.82 | 7.22 | 6.02 | 1.32 | 11.5 | 3.92 | -0.08 | 2.22 | 7.32 | 3.92 | 5.92 | 5.42 | 1.82 | 4.62 | -6.48 | 7.72 | 6.52 |
| Nc1ncn([C@@H]2O[C@H](CO)[C@@H](O)[C@H]2O)c(=O)n1 [Azacitidine] (top concentration 10000 nM) | 2.14 | -2.26 | 5.14 | 8.74 | 1.74 | 9.04 | 3.34 | 7.74 | 3.64 | 9.44 | 3.74 | -0.56 | 11.6 | 4.94 | -1.16 | 3.84 | 7.94 | -0.86 | -0.36 | 5.24 |
| Cn1cnc2c(F)c(Nc3ccc(Br)cc3F)c(C(=O)NOCCO)cc21 [Binimetinib] (top concentration 1000 nM) | -2.22 | 2.38 | -0.92 | 10.3 | 3.88 | 4.38 | -2.22 | -2.12 | 0.28 | 4.48 | -0.42 | -0.32 | 11.2 | -2.02 | -1.82 | 8.28 | -2.22 | -0.82 | -2.22 | -2.22 |
| O=C(Nc1cc(Oc2cc(F)c(NC(=O)C3(C(=O)Nc4ccc(F)cc4)CC3)cc2F)ccn1)C1CC1 [Altiratinib] (top concentration 10000 nM) | 3.74 | 3.24 | -0.16 | 3.74 | -2.16 | -0.36 | 1.64 | -0.46 | 8.84 | 3.84 | 0.34 | 8.14 | 6.64 | 0.24 | 2.74 | 1.14 | 3.54 | -2.56 | -0.66 | 7.24 |
